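Test compounds were applied to cells in 96-well plates for 48 hours at 5 doses. GI50 marks 50% less growth. TGI is the concentration that stops growth completely.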
Columns and labels:
Assay in all cases: inhibition of tumour cell growth, NCI panel, 48 h
M14 melanoma = tested on: M14 melanoma
NCI/ADR-RES ovarian = tested on: NCI/ADR-RES ovarian
SF-268 CNS = tested on: SF-268 CNS
SK-MEL-2 melanoma = tested on: SK-MEL-2 melanoma
IGROV1 ovarian = tested on: IGROV1 ovarian
OVCAR-8 ovarian = tested on: OVCAR-8 ovarian
MDA-MB-435 = tested on: MDA-MB-435
SF-539 CNS = tested on: SF-539 CNS
UACC-257 melanoma = tested on: UACC-257 melanoma
HOP-92 NSCLC = tested on: HOP-92 NSCLC
SF-295 CNS = tested on: SF-295 CNS
TK-10 renal = tested on: TK-10 renal
HOP-62 NSCLC = tested on: HOP-62 NSCLC
A549 NSCLC = tested on: A549 NSCLC
UACC-62 melanoma = tested on: UACC-62 melanoma
SR leukemia = tested on: SR leukemia
HCT-15 colon = tested on: HCT-15 colon
DU-145 prostate = tested on: DU-145 prostate
UO-31 renal = tested on: UO-31 renal
SNB-75 CNS = tested on: SNB-75 CNS
MALME-3M melanoma = tested on: MALME-3M melanoma
COLO 205 colon = tested on: COLO 205 colon
PC-3 prostate = tested on: PC-3 prostate
HT29 colon = tested on: HT29 colon
OVCAR-5 ovarian = tested on: OVCAR-5 ovarian
SK-OV-3 ovarian = tested on: SK-OV-3 ovarian
NCI-H23 lung = tested on: NCI-H23 lung
KM12 colon = tested on: KM12 colon
BT-549 breast = tested on: BT-549 breast
HS 578T breast = tested on: HS 578T breast
HL-60(TB) leukemia = tested on: HL-60(TB) leukemia
CAKI-1 renal = tested on: CAKI-1 renal
SNB-19 CNS = tested on: SNB-19 CNS
SK-MEL-28 melanoma = tested on: SK-MEL-28 melanoma
NCI-H226 lung = tested on: NCI-H226 lung
MCF7 breast = tested on: MCF7 breast
HCT-116 colon = tested on: HCT-116 colon
T-47D breast = tested on: T-47D breast
786-0 renal = tested on: 786-0 renal
OVCAR-4 ovarian = tested on: OVCAR-4 ovarian
NCI-H460 lung = tested on: NCI-H460 lung
MDA-MB-231 breast = tested on: MDA-MB-231 breast
ACHN renal = tested on: ACHN renal
RPMI-8226 leukemia = tested on: RPMI-8226 leukemia
A498 renal = tested on: A498 renal
SW-620 colon = tested on: SW-620 colon
SN12C renal = tested on: SN12C renal
SK-MEL-5 melanoma = tested on: SK-MEL-5 melanoma
K-562 leukemia = tested on: K-562 leukemia
RXF 393 renal = tested on: RXF 393 renal
CCRF-CEM leukemia = tested on: CCRF-CEM leukemia
NCI-H522 lung = tested on: NCI-H522 lung
U251 CNS = tested on: U251 CNS
LOX IMVI melanoma = tested on: LOX IMVI melanoma
HCC-2998 colon = tested on: HCC-2998 colon
MOLT-4 leukemia = tested on: MOLT-4 leukemia

Compound: Nc1ccc(-c2nnc(SCc3ccc(O)c4ncccc34)o2)cc1
- GI50 (M14 melanoma): 60.4 nM
- TGI (M14 melanoma): 2810 nM
- GI50 (NCI/ADR-RES ovarian): 43.9 nM
- TGI (NCI/ADR-RES ovarian): > 100000 nM
- GI50 (SF-268 CNS): 64.1 nM
- TGI (SF-268 CNS): > 75300 nM
- GI50 (SK-MEL-2 melanoma): 79.2 nM
- TGI (SK-MEL-2 melanoma): 2730 nM
- GI50 (IGROV1 ovarian): 84.6 nM
- TGI (IGROV1 ovarian): > 41900 nM
- GI50 (OVCAR-8 ovarian): 41.8 nM
- TGI (OVCAR-8 ovarian): > 100000 nM
- GI50 (MDA-MB-435): 45.4 nM
- TGI (MDA-MB-435): > 100000 nM
- GI50 (SF-539 CNS): 64.2 nM
- TGI (SF-539 CNS): 8750 nM
- GI50 (UACC-257 melanoma): 207 nM
- TGI (UACC-257 melanoma): 910 nM
- GI50 (HOP-92 NSCLC): 23.8 nM
- TGI (HOP-92 NSCLC): 72.4 nM
- GI50 (SF-295 CNS): 41.2 nM
- TGI (SF-295 CNS): > 39000 nM
- GI50 (TK-10 renal): 132 nM
- GI50 (HOP-62 NSCLC): 81.5 nM
- TGI (HOP-62 NSCLC): 7620 nM
- GI50 (A549 NSCLC): 41.7 nM
- TGI (A549 NSCLC): > 100000 nM
- GI50 (UACC-62 melanoma): 249 nM
- TGI (UACC-62 melanoma): 2280 nM
- GI50 (SR leukemia): 89.1 nM
- TGI (SR leukemia): > 100000 nM
- GI50 (HCT-15 colon): 38.2 nM
- TGI (HCT-15 colon): > 100000 nM
- GI50 (DU-145 prostate): 55 nM
- TGI (DU-145 prostate): > 38500 nM
- GI50 (UO-31 renal): 61.9 nM
- TGI (UO-31 renal): 1910 nM
- GI50 (SNB-75 CNS): 112 nM
- TGI (SNB-75 CNS): 12900 nM
- GI50 (MALME-3M melanoma): 92.7 nM
- TGI (MALME-3M melanoma): 31900 nM
- GI50 (COLO 205 colon): 442 nM
- TGI (COLO 205 colon): 2450 nM
- GI50 (PC-3 prostate): 50.2 nM
- TGI (PC-3 prostate): > 100000 nM
- GI50 (HT29 colon): 485 nM
- TGI (HT29 colon): > 100000 nM
- GI50 (OVCAR-5 ovarian): 498 nM
- TGI (OVCAR-5 ovarian): > 100000 nM
- GI50 (SK-OV-3 ovarian): 80.7 nM
- TGI (SK-OV-3 ovarian): 577 nM
- GI50 (NCI-H23 lung): 49.2 nM
- TGI (NCI-H23 lung): > 26900 nM
- GI50 (KM12 colon): 128 nM
- TGI (KM12 colon): > 100000 nM
- GI50 (BT-549 breast): 55.8 nM
- TGI (BT-549 breast): > 100000 nM
- GI50 (HS 578T breast): 50.9 nM
- TGI (HS 578T breast): > 100000 nM
- GI50 (HL-60(TB) leukemia): 98.7 nM
- TGI (HL-60(TB) leukemia): 1220 nM
- GI50 (CAKI-1 renal): 179 nM
- TGI (CAKI-1 renal): > 68100 nM
- GI50 (SNB-19 CNS): 43.8 nM
- TGI (SNB-19 CNS): > 51800 nM
- GI50 (SK-MEL-28 melanoma): 139 nM
- TGI (SK-MEL-28 melanoma): > 100000 nM
- GI50 (NCI-H226 lung): 441 nM
- TGI (NCI-H226 lung): > 100000 nM
- GI50 (MCF7 breast): 38.7 nM
- TGI (MCF7 breast): > 100000 nM
- GI50 (HCT-116 colon): 37.9 nM
- TGI (HCT-116 colon): 28800 nM
- GI50 (T-47D breast): 85 nM
- TGI (T-47D breast): > 100000 nM
- GI50 (786-0 renal): 224 nM
- TGI (786-0 renal): 16700 nM
- GI50 (OVCAR-4 ovarian): 259 nM
- TGI (OVCAR-4 ovarian): > 100000 nM
- GI50 (NCI-H460 lung): 36.7 nM
- GI50 (MDA-MB-231 breast): 154 nM
- TGI (MDA-MB-231 breast): 22600 nM
- GI50 (ACHN renal): 72.6 nM
- TGI (ACHN renal): > 31900 nM
- GI50 (RPMI-8226 leukemia): 46.1 nM
- TGI (RPMI-8226 leukemia): > 100000 nM
- GI50 (A498 renal): 317 nM
- TGI (A498 renal): 3300 nM
- GI50 (SW-620 colon): 61.8 nM
- TGI (SW-620 colon): > 100000 nM
- GI50 (SN12C renal): 39.2 nM
- TGI (SN12C renal): > 100000 nM
- GI50 (SK-MEL-5 melanoma): 49.1 nM
- GI50 (K-562 leukemia): 44.2 nM
- TGI (K-562 leukemia): > 100000 nM
- GI50 (RXF 393 renal): 90.6 nM
- TGI (RXF 393 renal): > 85900 nM
- GI50 (CCRF-CEM leukemia): 61.7 nM
- TGI (CCRF-CEM leukemia): > 100000 nM
- GI50 (NCI-H522 lung): 44 nM
- TGI (NCI-H522 lung): > 50700 nM
- GI50 (U251 CNS): 35.4 nM
- TGI (U251 CNS): 11800 nM
- GI50 (LOX IMVI melanoma): 30.5 nM
- TGI (LOX IMVI melanoma): > 33700 nM
- GI50 (HCC-2998 colon): 177 nM
- TGI (HCC-2998 colon): > 100000 nM
- GI50 (MOLT-4 leukemia): 124 nM
- TGI (MOLT-4 leukemia): > 100000 nM

— PubChem BioAssay (NCI)
